Assay results published in ChEMBL document CHEMBL4382239, “Pharmaceutical significance of azepane based motifs for drug discovery: A critical review” (Eur J Med Chem, 2019).
Values after ≈ are worked out from the molar mass of the structure shown.

Tests used:
[1] = Inhibition of 6His-tagged Mycobacterium tuberculosis inorganic pyrophosphatase using tetrasodium PPi as substrate after 8 mins by malachite green dye-based colorimetric analysis
Escherichia coli = assay: Antibacterial activity against Escherichia coli DH52 incubated for 16 to 18 hrs by serial plate dilution method; format: functional
Shigella dysenteriae = assay: Antibacterial activity against Shigella dysenteriae incubated for 16 to 18 hrs by serial plate dilution method; format: functional
Pseudomonas aeruginosa = assay: Antibacterial activity against Pseudomonas aeruginosa incubated for 16 to 18 hrs by serial plate dilution method; format: functional
Salmonella typhi = assay: Antibacterial activity against […] incubated for 16 to 18 hrs by serial plate dilution method; format: functional, Salmonella enterica subsp. enterica serovar Typhi; conditions: Salmonella enterica
Micrococcus luteus = assay: Antibacterial activity against Micrococcus luteus ATCC 4698 incubated for 16 to 18 hrs by serial plate dilution method; format: functional
Bacillus subtilis = assay: Antibacterial activity against Bacillus subtilis incubated for 16 to 18 hrs by serial plate dilution method; format: functional
Staphylococcus aureus [2] = assay: Antibacterial activity against Staphylococcus aureus ATCC 25923 incubated for 16 to 18 hrs by serial plate dilution method; format: functional
Staphylococcus aureus [3] = assay: Antibacterial activity against Staphylococcus aureus; format: functional
Beta-galactosidase [4] = target: T1, Beta-galactosidase (Aspergillus oryzae, UniProt B7VU80); assay: Inhibition of Aspergillus oryzae beta-galactosidase
T1 sequence (B7VU80 whole entry): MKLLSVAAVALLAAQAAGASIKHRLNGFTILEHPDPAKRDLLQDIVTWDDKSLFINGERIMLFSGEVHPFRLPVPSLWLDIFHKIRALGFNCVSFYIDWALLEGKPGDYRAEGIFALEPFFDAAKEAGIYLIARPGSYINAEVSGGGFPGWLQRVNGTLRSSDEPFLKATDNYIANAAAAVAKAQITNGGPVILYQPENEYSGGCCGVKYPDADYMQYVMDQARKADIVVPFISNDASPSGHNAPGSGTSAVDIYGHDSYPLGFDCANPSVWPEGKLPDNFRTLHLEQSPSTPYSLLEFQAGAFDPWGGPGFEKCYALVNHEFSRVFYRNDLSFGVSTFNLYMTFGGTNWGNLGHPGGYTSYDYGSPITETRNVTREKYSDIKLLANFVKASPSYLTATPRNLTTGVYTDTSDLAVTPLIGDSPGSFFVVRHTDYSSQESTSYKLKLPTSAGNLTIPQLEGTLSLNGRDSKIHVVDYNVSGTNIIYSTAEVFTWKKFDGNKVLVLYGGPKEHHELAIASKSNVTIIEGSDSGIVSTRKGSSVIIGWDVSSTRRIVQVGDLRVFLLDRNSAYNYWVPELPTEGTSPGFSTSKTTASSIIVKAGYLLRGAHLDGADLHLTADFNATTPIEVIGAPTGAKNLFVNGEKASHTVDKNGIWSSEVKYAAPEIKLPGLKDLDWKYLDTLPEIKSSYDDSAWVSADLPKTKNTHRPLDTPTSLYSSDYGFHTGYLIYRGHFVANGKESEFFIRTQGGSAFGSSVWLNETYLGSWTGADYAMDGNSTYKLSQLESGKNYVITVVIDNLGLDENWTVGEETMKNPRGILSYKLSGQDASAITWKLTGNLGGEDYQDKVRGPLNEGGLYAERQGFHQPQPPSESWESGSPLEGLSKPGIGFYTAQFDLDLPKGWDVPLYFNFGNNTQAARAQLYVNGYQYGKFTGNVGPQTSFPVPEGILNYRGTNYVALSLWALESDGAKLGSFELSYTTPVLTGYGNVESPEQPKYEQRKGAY

HT-29 = assay: Cytotoxicity against human HT-29 cells; format: functional
HCT-116 = assay: Cytotoxicity against human HCT116 cells; format: functional
MCF7 = assay: Cytotoxicity against human MCF7 cells; format: functional
Rattus norvegicus = assay: Anticonvulsant activity in Wistar rat assessed as protection against MES-induced seizures at 15 mg/kg dosed via gastric tube; format: functional
[5] = target: Protein farnesyltransferase (Homo sapiens, UniProt P49354+P49356); assay: Inhibition of human recombinant FTase using [3H]FPP as substrate after 15 mins by scintillation counting analysis; format: protein-complex assay
Bos taurus = species on record: Bos taurus; assay: Competitive inhibition of bovine epididymis alpha-L-fucosidase at 1 mM relative to control
[6] = Competitive inhibition of bovine epididymis alpha-L-fucosidase; design: species or system Bos taurus
Alpha-galactosidase = Alpha-galactosidase (Coffea arabica, UniProt Q42656); assay: Inhibition of green coffee bean alpha-galactosidase
Sequence of Alpha-galactosidase (Q42656 whole entry): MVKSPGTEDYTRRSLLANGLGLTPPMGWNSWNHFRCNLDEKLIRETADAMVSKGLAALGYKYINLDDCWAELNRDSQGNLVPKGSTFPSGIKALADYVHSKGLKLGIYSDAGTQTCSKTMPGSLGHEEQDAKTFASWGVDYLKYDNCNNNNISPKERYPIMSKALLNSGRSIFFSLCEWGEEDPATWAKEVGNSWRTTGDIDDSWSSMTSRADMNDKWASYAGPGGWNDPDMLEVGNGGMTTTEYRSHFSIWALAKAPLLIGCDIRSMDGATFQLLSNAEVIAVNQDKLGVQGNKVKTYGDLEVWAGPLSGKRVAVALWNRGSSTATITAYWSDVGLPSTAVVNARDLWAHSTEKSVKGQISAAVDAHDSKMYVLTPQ

[7] = Competitive inhibition of almond beta-glucosidase; design: species or system Prunus dulcis
Prunus dulcis = assay: Competitive inhibition of almond beta-glucosidase at 1 mM relative to control
Beta-galactosidase [8] = target: T2, Beta-galactosidase (Homo sapiens, UniProt P16278); assay: Inhibition of beta-galactosidase (unknown origin)
T2 sequence (P16278 whole entry): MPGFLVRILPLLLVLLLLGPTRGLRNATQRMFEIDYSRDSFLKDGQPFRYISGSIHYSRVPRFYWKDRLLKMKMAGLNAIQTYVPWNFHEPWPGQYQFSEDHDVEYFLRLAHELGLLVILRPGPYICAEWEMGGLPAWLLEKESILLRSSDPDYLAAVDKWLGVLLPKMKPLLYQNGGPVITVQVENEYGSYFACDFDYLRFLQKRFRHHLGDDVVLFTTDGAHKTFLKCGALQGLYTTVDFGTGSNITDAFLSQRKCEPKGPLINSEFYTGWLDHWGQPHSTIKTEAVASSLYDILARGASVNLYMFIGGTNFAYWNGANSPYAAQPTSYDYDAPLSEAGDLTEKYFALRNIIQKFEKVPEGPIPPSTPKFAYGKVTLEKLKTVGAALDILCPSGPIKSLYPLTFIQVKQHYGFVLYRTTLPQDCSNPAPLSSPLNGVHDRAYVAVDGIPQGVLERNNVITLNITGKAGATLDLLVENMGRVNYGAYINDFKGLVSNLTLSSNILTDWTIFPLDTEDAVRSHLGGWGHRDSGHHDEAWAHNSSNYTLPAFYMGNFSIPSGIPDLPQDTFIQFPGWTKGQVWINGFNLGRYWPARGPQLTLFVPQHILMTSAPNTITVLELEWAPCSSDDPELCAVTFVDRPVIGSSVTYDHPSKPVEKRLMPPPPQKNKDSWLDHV

For CN(C)c1nc(-c2cccn2-c2ccccc2)nc(N(C)C)n1, the IC50 [1] was 540 µM.

Work on COC(=O)C1CCCCN(c2ccc(Cl)cc2)C1C(=O)OC (stereo not drawn) yielded an MIC (Escherichia coli) of 2 to 32 µg/mL (≈ 6.14 to 98.2 µM), an MIC (Shigella dysenteriae) of 2 to 32 µg/mL (≈ 6.14 to 98.2 µM) and an MIC (Pseudomonas aeruginosa) of 2 to 32 µg/mL (≈ 6.14 to 98.2 µM). It also gave an MIC (Salmonella typhi) of 2 to 32 µg/mL (≈ 6.14 to 98.2 µM), an MIC (Micrococcus luteus) of 2 to 32 µg/mL (≈ 6.14 to 98.2 µM) and an MIC (Bacillus subtilis) of 2 to 32 µg/mL (≈ 6.14 to 98.2 µM). For the same compound, the MIC (Staphylococcus aureus [2]) was 2 to 32 µg/mL (≈ 6.14 to 98.2 µM).

Compound NC[C@H]1O[C@H](OC2C[C@H](CO)NCC[C@@H]2N)[C@H](N)[C@@H](O)[C@@H]1O (stereo partly drawn) has an MIC (Staphylococcus aureus [3]) of 64 µg/mL (≈ 200 µM).

Compound CCCCN(CCCC)c1nc(-c2cccn2CCc2ccccc2)nc(N2CCCCCC2)n1 has an IC50 [1] of 23 µM.

c1ccc(-n2cccc2-c2nc(N3CC3)nc(N3CC3)n2)cc1 showed an IC50 [1] of 130 µM.

With O=C(O)C[C@H]1NC[C@@H](O)[C@H](O)[C@H](O)[C@H]1O the IC50 (Beta-galactosidase [4]) was 21 µM.

CC(C)O[C@H]1[C@H](OC(C)C)[C@H](O)CN(Cc2ccc(OCCCOc3ccc(CN4C[C@@H](O)[C@@H](OC(C)C)[C@H](OC(C)C)[C@H](O)C4)cc3)cc2)C[C@H]1O gave a GI50 (HT-29) of 23 µM, a GI50 (HCT-116) of 6 µM and a GI50 (MCF7) of 24 µM.

NC(=O)N1c2ccccc2C/C(=N\O)c2ccccc21 gave an Activity (Rattus norvegicus) of 90%.

For CCC1CCCN(C)C(=O)[C+]1c1cccc(Oc2cc(C(C)(N)c3cncn3C)ccc2C#N)c1 (stereo not drawn), the IC50 [5] was 0.06 nM.

With O=C(O)C[C@H]1NC[C@@H](O)[C@@H](O)[C@H](O)[C@H]1O the IC50 (Beta-galactosidase [4]) was 215 µM.

O=C(O)[C@H]1CNC[C@@H](O)[C@H](O)[C@H]1O showed an inhibition (Bos taurus) of 99% and a Ki [6] of 41 µM.

OC[C@H]1NC[C@H](O)[C@H](O)[C@@H](O)[C@@H]1O gave a Ki (Alpha-galactosidase) of 2.2 µM.

For NC[C@H]1O[C@H](O[C@H]2C[C@H](CO)NCC[C@H]2N)[C@H](N)[C@@H](O)[C@@H]1O, the MIC (Staphylococcus aureus [3]) was 32 µg/mL (≈ 99.9 µM).

For C[C@@H]1CNC[C@@H](O)[C@H](O)[C@H]1O, the Ki [7] was 2.5 µM and the inhibition (Prunus dulcis) was 100%.

O=C(O)C[C@@H]1NC[C@H](O)[C@H](O)[C@H](O)[C@H]1O gave an IC50 (Beta-galactosidase [4]) of 279 µM.

In the case of CCCC[C@@H]1C[C@@H](O)[C@@H](O)[C@@H](O)CN1, the IC50 (Beta-galactosidase [8]) is reported as 3 µM.

Work on COC(=O)C1CCCCN(c2ccccn2)C1C(=O)OC (stereo not drawn) yielded an MIC (Escherichia coli) of 1 to 16 µg/mL (≈ 3.42 to 54.7 µM), an MIC (Shigella dysenteriae) of 1 to 16 µg/mL (≈ 3.42 to 54.7 µM) and an MIC (Pseudomonas aeruginosa) of 1 to 16 µg/mL (≈ 3.42 to 54.7 µM). For the same compound, the MIC (Salmonella typhi) was 1 to 16 µg/mL (≈ 3.42 to 54.7 µM), the MIC (Micrococcus luteus) was 1 to 16 µg/mL (≈ 3.42 to 54.7 µM) and the MIC (Bacillus subtilis) was 1 to 16 µg/mL (≈ 3.42 to 54.7 µM). It also gave an MIC (Staphylococcus aureus [2]) of 1 to 16 µg/mL (≈ 3.42 to 54.7 µM).
